Source: article PMC8156467, “Disruption of YY1-EZH2 Interaction Using Synthetic Peptides Inhibits Breast Cancer Development” (Cancers, 2021)

Key:
[1] = test system: HA-YY1; experiment: Co-IP of Flag-EZH2 wt/mutants with HA-YY1; type: binding; settings: co-IP, Flag-tagged EZH2 and HA-YY1
Source text: (§1) HA-tagged expression vectors of wild-type (wt) and mutant YY1 were constructed by amplifying and subcloning the corresponding fragments of the YY1 coding region into the pcDNA3 vector. To generate EZH2 mutants, different regions of its coding sequence (1–251, 252–384, 385–618, 619–751, 385–465, 465–545, 545–618, 465–492, and 465–519) were amplified and subcloned into pGEX-4T-1 and pSL4-3×Flag plasmids to construct vectors expressing recombinant GST-EZH2 and 3×Flag-EZH2 mutants, respectively. To generate vectors expressing 3×Flag-YPB, -OPB, and -Cont (with a scrambled sequence of […]) peptides, their coding sequences were individually subcloned into a lentiviral vector pSL4 using the CMV promoter to drive the expression of 3×Flag-YPB-2A1-EGFP, 3×Flag-OPB-2A1-EGFP, and 3×Flag-Cont-2A1-EGFP. […] Two shRNAs against PTENP1 (shPTENP1-1 and shPTENP1-2, with target sequences of […] and […], respectively), and one control shRNA (with a scrambled target sequence of […]) driven by the U6 promoter were generated in a lentiviral vector with a puromycin selection marker as we previously described. In addition, we also generated lentiviruses expressing two shRNAs (shYY1-1 and shYY1-2, with target sequences of […] and […], respectively), and two EZH2 (shEZH2-1 and shEZH2-2, with target sequences of […] and […]-[…], respectively).
Immunoprecipitations were performed as described previously. Cells were harvested and lysed in cell lysis buffer (50 mM Tris⋅HCl, pH 7.5, 150 mM NaCl, 1% Nonidet P-40, 0.5% sodium deoxycholate, and 1% protease inhibitor cocktails, Sigma-Aldrich). […] In Western blot studies, protein concentrations of samples were determined using the Bradford protein method, and 20 μg of proteins for each sample were separated by SDS-PAGE followed by transfer to polyvinylidene difluoride (PVDF) membranes. […]
Figure 1 Identification of YY1 binding site on EZH2 protein. […] The samples were analyzed by Western blot using EZH2 and YY1 antibodies as indicated. […]

[2] = target: His×6-YY1 (Homo sapiens, UniProt P25490); experiment: GST pull-down of His×6-YY1 by GST-EZH2 mutants; type: binding; settings: 1.0 µg His×6-YY1, 4 h
Source text: as §1
The GST fusion protein expressed in E. coli was lysed with the binding buffer (20 mM Tris⋅HCl, pH 7.5, 150 mM NaCl, 0.1% Nonidet P-40, 1 mM dithiothreitol, 10% glycerol, 1 mM EDTA, 2.5 mM MgCl2, and 1 µg/mL leupeptin) for 30 min at 4 °C. Glutathione-Sepharose beads (Thermo Fisher Scientific) were incubated with bacterial lysates containing expressed recombinant GST-EZH2 mutant proteins for 4 h at 4 °C. After extensive washing of the beads, 1.0 µg of purified His×6-YY1 was added, and the samples were incubated for another 4 h. The washed beads with bound proteins were resuspended in an SDS-containing sample buffer and analyzed by SDS-PAGE.

[3] = test system: breast cancer cells (MCF-7, MDA-MB-231, MDA-MB-453); experiment: Annexin V-FITC/PI apoptosis, breast cancer cells together; type: cell-based; settings: peptides 30 μM (no FITC), tamoxifen 15 µM, 48 h; vs Cont
Experimental: The cells were collected by trypsinization and washed twice by ice-cold PBS, followed by Annexin V-FITC and propidium iodide (PI) staining for 10 min using the reagents in an Annexin V-FITC Apoptosis Detection Kit (Vazyme Biotech Co. Ltd., Nanjing, China). The ratios of apoptotic cells were evaluated using flow cytometry (AccuriC6, BD Biosciences, San Jose, CA, USA).

Chain of His×6-YY1 (P25490 whole entry): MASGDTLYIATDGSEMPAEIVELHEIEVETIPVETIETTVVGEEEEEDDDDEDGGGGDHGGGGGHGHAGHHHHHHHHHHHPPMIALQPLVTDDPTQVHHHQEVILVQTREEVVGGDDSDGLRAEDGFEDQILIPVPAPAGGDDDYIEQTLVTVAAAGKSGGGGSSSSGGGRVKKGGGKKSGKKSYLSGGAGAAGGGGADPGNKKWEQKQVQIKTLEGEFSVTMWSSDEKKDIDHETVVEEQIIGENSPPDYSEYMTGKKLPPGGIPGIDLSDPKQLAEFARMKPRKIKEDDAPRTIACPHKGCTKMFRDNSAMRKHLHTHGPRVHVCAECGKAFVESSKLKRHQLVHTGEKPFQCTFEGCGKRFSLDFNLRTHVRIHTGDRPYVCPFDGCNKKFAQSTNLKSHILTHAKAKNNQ

interaction with His×6-YY1 in GST pull-down [2]	Compound	interaction with HA-YY1 in co-IP [1]	other results
–	EZH2 (465–545): Flag-tagged EZH2 mutant 465–545	could interact with HA-YY1	–
–	(385–618): Flag-tagged EZH2 region 385–618	could bring down HA-YY1	–
could interact with His×6-YY1	GST-EZH2 (385–618): GST fusion of EZH2 residues 385–618	–	–
could also pull down His×6-YY1	GST-EZH2 (465–545): GST fusion of EZH2 residues 465–545	–	–
–	CC/C(=C(\c1ccccc1)c1ccc(OCCN(C)C)cc1)c1ccccc1 [tamoxifen]	–	pro-apoptotic portions of breast cancer cells [3]: could significantly increase the pro-apoptotic portions
–	Flag-EZH2 wt: Flag-tagged wild-type EZH2	could bring down HA-YY1	–
could interact with His×6-YY1	GST-EZH2 (465–519): GST fusion of EZH2 residues 465–519	–	–
